Literature values as cited in PubChem BioAssay AID1259409 (Chemical Carcinogenesis Research Information System (CCRIS), 2018).

Test system: rodent chemically induced tumor inhibition, incidence and multiplicity
Test: CCRIS tumor inhibitor studies
Conditions: Dose [Inhibitor]: 0, Route [Inhibitor]: ORAL, Promoter: NONE USED

## Cc1c(-c2cnccn2)ssc1=S
Carcinogen: 2-AMINO-1-METHYL-6-PHENYLIMIDAZO[4,5-B]PYRIDINE, 105650-23-5, 200 PPM IN DIET FOR 52 WK (STUDY DURATION: 52 WK), Species: RAT, Strain/Sex: F344/MALE, Target Tissue: Type of Lesion: LYMPHATIC SYSTEM: LYMPHOMA, Dose [Carcinogen]: 400 PPM IN DIET FOR 10 WK THEN 200 PPM TO WK 14 FOLLOWED BY 100 PPM FOR DURATION OF STUDY
  tumour outcome (control, treated, inhibition, significance): 75%, 6%, 92%, not calculated
Carcinogen: 2-AMINO-1-METHYL-6-PHENYLIMIDAZO[4,5-B]PYRIDINE, 105650-23-5, 400 PPM IN DIET FOR 52 WK (STUDY DURATION: 52 WK), Species: RAT, Strain/Sex: F344/MALE, Target Tissue: Type of Lesion: LYMPHATIC SYSTEM: LYMPHOMA, Dose [Carcinogen]: 400 PPM IN DIET FOR 10 WK THEN 200 PPM TO WK 14 FOLLOWED BY 100 PPM FOR DURATION OF STUDY
  tumour outcome (control, treated, inhibition, significance): 75%, 0%, 100%, not calculated
Carcinogen: 4-(METHYLNITROSAMINO)-1-(3-PYRIDYL)-1-BUTANONE, 64091-91-4, 0.25 G/KG DIET (EFFECTIVE DOSE 3.31 UMOL/D) BEGINNING 2 WK PRIOR TO CARCINOGEN TREATMENT AND CONTINUING FOR DURATION, Species: MOUSE, Strain/Sex: STRAIN-A/FEMALE, Target Tissue: Type of Lesion: LUNG: TUMORS, Dose [Carcinogen]: 9.0-9.2 MG/MOUSE (TOTAL DOSE) IN DRINKING WATER ADMINISTERED OVER 7 WK
  tumour outcome (control, treated, inhibition, significance): 28/28 (100%), 25/25 (100%), 0%, not significant
Carcinogen: AZOXYMETHANE, 25843-45-2, 200 PPM IN DIET 7 WK PRIOR TO CARCINOGEN TREATMENT AND CONTINUING FOR STUDY DURATION (STUDY DURATION: 59 WK), Species: RAT, Strain/Sex: F344/MALE, Target Tissue: Type of Lesion: COLON: ADENOCARCINOMA, Dose [Carcinogen]: 15 MG/KG 1/WK FOR 2 WK
  tumour outcome (control, treated, inhibition, significance): 72%, 47%, 35%, p<0.05
Carcinogen: AZOXYMETHANE, 25843-45-2, 200 PPM IN DIET 7 WK PRIOR TO CARCINOGEN TREATMENT AND CONTINUING FOR STUDY DURATION (STUDY DURATION: 59 WK), Species: RAT, Strain/Sex: F344/MALE, Target Tissue: Type of Lesion: COLON: ADENOMA, Dose [Carcinogen]: 15 MG/KG 1/WK FOR 2 WK
  tumour outcome (control, treated, inhibition, significance): 14%, 6%, 57%, p<0.05
Carcinogen: AZOXYMETHANE, 25843-45-2, 200 PPM IN DIET 7 WK PRIOR TO CARCINOGEN TREATMENT AND CONTINUING FOR STUDY DURATION (STUDY DURATION: 59 WK), Species: RAT, Strain/Sex: F344/MALE, Target Tissue: Type of Lesion: SMALL INTESTINE: ADENOCARCINOMA, Dose [Carcinogen]: 15 MG/KG 1/WK FOR 2 WK
  tumour outcome (control, treated, inhibition, significance): 50%, 16%, 68%, p<0.001
Carcinogen: AZOXYMETHANE, 25843-45-2, 200 PPM IN DIET BEGINNING 2 WK PRIOR TO CARCINOGEN TREATMENT AND CONTINUING FOR 3 D POST LAST CARCINOGEN DOSE FOLLOWE, Species: RAT, Strain/Sex: F344/MALE, Target Tissue: Type of Lesion: COLON: INVASIVE ADENOCARCINOMA, Dose [Carcinogen]: 15 MG/KG 1/WK FOR 2 WK
  tumour outcome (control, treated, inhibition, significance): 33%, 3%, 91%, p<0.001
Carcinogen: AZOXYMETHANE, 25843-45-2, 200 PPM IN DIET BEGINNING 2 WK PRIOR TO CARCINOGEN TREATMENT AND CONTINUING FOR 3 D POST LAST CARCINOGEN DOSE FOLLOWE, Species: RAT, Strain/Sex: F344/MALE, Target Tissue: Type of Lesion: COLON: NONINVASIVE ADENOCARCINOMA, Dose [Carcinogen]: 15 MG/KG 1/WK FOR 2 WK
  tumour outcome (control, treated, inhibition, significance): 53%, 43%, 19%, not significant
Carcinogen: AZOXYMETHANE, 25843-45-2, 200 PPM IN DIET BEGINNING 2 WK PRIOR TO CARCINOGEN TREATMENT AND CONTINUING FOR 3 D POST LAST CARCINOGEN DOSE FOLLOWE, Species: RAT, Strain/Sex: F344/MALE, Target Tissue: Type of Lesion: SMALL INTESTINE: INVASIVE ADENOCARCINOMA, Dose [Carcinogen]: 15 MG/KG 1/WK FOR 2 WK
  tumour outcome (control, treated, inhibition, significance): 22%, 7%, 68%, p<0.05
Carcinogen: AZOXYMETHANE, 25843-45-2, 200 PPM IN DIET BEGINNING 2 WK PRIOR TO CARCINOGEN TREATMENT AND CONTINUING FOR 3 D POST LAST CARCINOGEN DOSE FOLLOWE, Species: RAT, Strain/Sex: F344/MALE, Target Tissue: Type of Lesion: SMALL INTESTINE: NONINVASIVE ADENOCARCINOMA, Dose [Carcinogen]: 15 MG/KG 1/WK FOR 2 WK
  tumour outcome (control, treated, inhibition, significance): 6%, 3%, 50%, not significant
Carcinogen: AZOXYMETHANE, 25843-45-2, 200 PPM IN DIET BEGINNING 3 D POST LAST CARCINOGEN DOSE AND CONTINUING FOR DURATION OF STUDY (STUDY DURATION: 56 WK), Species: RAT, Strain/Sex: F344/MALE, Target Tissue: Type of Lesion: COLON: INVASIVE ADENOCARCINOMA, Dose [Carcinogen]: 15 MG/KG 1/WK FOR 2 WK
  tumour outcome (control, treated, inhibition, significance): 33%, 0%, 100%, p<0.001
Carcinogen: AZOXYMETHANE, 25843-45-2, 200 PPM IN DIET BEGINNING 3 D POST LAST CARCINOGEN DOSE AND CONTINUING FOR DURATION OF STUDY (STUDY DURATION: 56 WK), Species: RAT, Strain/Sex: F344/MALE, Target Tissue: Type of Lesion: COLON: NONINVASIVE ADENOCARCINOMA, Dose [Carcinogen]: 15 MG/KG 1/WK FOR 2 WK
  tumour outcome (control, treated, inhibition, significance): 53%, 73%, -38%, not significant
Carcinogen: AZOXYMETHANE, 25843-45-2, 200 PPM IN DIET BEGINNING 3 D POST LAST CARCINOGEN DOSE AND CONTINUING FOR DURATION OF STUDY (STUDY DURATION: 56 WK), Species: RAT, Strain/Sex: F344/MALE, Target Tissue: Type of Lesion: SMALL INTESTINE: INVASIVE ADENOCARCINOMA, Dose [Carcinogen]: 15 MG/KG 1/WK FOR 2 WK
  tumour outcome (control, treated, inhibition, significance): 22%, 20%, 9%, not significant
Carcinogen: AZOXYMETHANE, 25843-45-2, 200 PPM IN DIET BEGINNING 3 D POST LAST CARCINOGEN DOSE AND CONTINUING FOR DURATION OF STUDY (STUDY DURATION: 56 WK), Species: RAT, Strain/Sex: F344/MALE, Target Tissue: Type of Lesion: SMALL INTESTINE: NONINVASIVE ADENOCARCINOMA, Dose [Carcinogen]: 15 MG/KG 1/WK FOR 2 WK
  tumour outcome (control, treated, inhibition, significance): 6%, 3%, 50%, not significant
Carcinogen: AZOXYMETHANE, 25843-45-2, 200 PPM IN DIET FOR 56 WK BEGINNING 2 WK PRIOR TO CARCINOGEN TREATMENT (STUDY DURATION: 56 WK), Species: RAT, Strain/Sex: F344/MALE, Target Tissue: Type of Lesion: COLON (DISTAL): TUMOR, Dose [Carcinogen]: 15 MG/KG 1/WK FOR 2 WK
  tumour outcome (control, treated, inhibition, significance): 47%, 28%, 40%, not significant
Carcinogen: AZOXYMETHANE, 25843-45-2, 200 PPM IN DIET FOR 56 WK BEGINNING 2 WK PRIOR TO CARCINOGEN TREATMENT (STUDY DURATION: 56 WK), Species: RAT, Strain/Sex: F344/MALE, Target Tissue: Type of Lesion: COLON (PROXIMAL): TUMOR, Dose [Carcinogen]: 15 MG/KG 1/WK FOR 2 WK
  tumour outcome (control, treated, inhibition, significance): 39%, 30%, 23%, not significant
